{"source": "patent US20230263754A1", "about": "“SOLID DISPERSIONS AND PARTICLES AND METHODS FOR CONTROLLED-RELEASE OF LIPID-SOLUBLE OR DISPESIBLE ACTIVES” (YISSUM RESEARCH DEVELOPMENT COMPANY OF THE HEBREW …, priority 2020, published 2023)", "format_in_all_cases": "physicochemical", "key": {"[1]": {"test": "Release of drugs from Pickering particles in phosphate buffer (Example 3)", "conditions": "for time within which almost all the drug was released: 1% (w/w) drug loaded Pickering dispersion, aqueous solution, room temperature; for release behaviour from the Pickering particles in the release medium: FIGS. 6, buffer medium", "description": "Release of drugs from particles: Standard curve of drug was prepared in 10 mM phosphate buffer at pH 7.2. 10 mg of drug loaded lyophilized Pickering particles were added to 2 mL of buffer and the periodic isolated solution was analyzed by UV. The release was examined at room temperature. This was done in purpose to examine the drug release properties from the Pickering particles. The analysis of initial 30 min of release is considered as the burst release of drugs from the particles (FIGS. 6).\nRelease of ibuprofen from 1% (w/w) drug loaded Pickering dispersion. The release of ibuprofen was monitored by UV at the wavelength of 223 nm.\nRelease of ketoprofen from 1% (w/w) drug loaded Pickering dispersion. Standard curve of ketoprofen was prepared in 10 mM phosphate buffer at pH 7.2 at wavelength of 260 nm.\nThe particles were checked for the drug release with time. FIGS. 6 provides the release of the drug loaded Pickering particles in a buffer medium."}, "[2]": {"test": "In vitro drug release from beeswax microspheres (Example 6)", "description": "10 mg of microspheres were mixed with 5 mL of H2O or buffer and placed in the incubator. Three samples of each formulation were run at same conditions. A 3 mL samples were withdrawn at predetermined time intervals and an equal volume of fresh dissolution medium was replaced.\nIn vitro drug release for the obtained microspheres was studied in 5 ml of 10 mM buffer phosphate solution, pH 7.4 or in ddH2O at 37° C."}, "[3]": {"test": "Encapsulation efficiency and loading capacity of solid lipid microspheres (UV after dissolving in chloroform)", "method": "The standard curves were constructed in a concentration range of 3-70 µg/mL in 10 mM PBS with R^2 value of 0.9993 and in a concentration range of 15-800 µg/mL in chloroform with R^2 value of 0.9935.\nEncapsulation efficiency is percentage of drug encapsulated in the microspheres relating to initial quantity used. 10 mg of microspheres were dissolved in 4 mL of chloroform. The absorbance of the drugs was measured using a UV-VIS spectrophotometer after appropriate dilution in order to reach calibration curve concentrations. The measured absorbance was then converted to the amount of drug by using standard calibration curve.\nThe loading capacity is usually expressed as the ratio of the weight of entrapped drug and the total weight of the lipid and coating particles in percentage.\nDrug entrapment efficiency is calculated in order to determine the amount of drug that is actually retained in the microparticles related to the amount of drug that was mixed with lipid before particles formation, and usually expressed as a percentage."}, "[4]": {"test": "Fluazinam release from microparticles immersed in water", "conditions": "hydrogenated vegetable oil particles decorated with modified silica nanoparticles, about 20 microns, room temperature"}, "[5]": {"test": "Weight loss of DEET loaded microparticles at accelerated temperature", "conditions": "30% w/w DEET loaded microparticles, 1:10 SiO2-NH2:hydrogenated vegetable oil, accelerated temperature 50° C., 1 h", "description": "Drug loading: DEET insect repellent 30% (w/w): 30% w/w of DEET was loaded into the microparticles. The selection of the 30% drug content was based on the dissolving the DEET into the molten oil and then cooled down. The DEET loading was examined for 1:1, 1:2, 1:10 and 1:20 ratio SiO2-NH2:hydrogenated vegetable oil. The DEET loaded particles were tested by weight loss in the DEET loaded 1:10 ratio was examined. Accelerated temperature of 50° C. was used. The weight sample was heated to […] and monitored the weight loss for 1 h. 2% decrease in the weight loss of the DEET loaded microparticles was observed."}}, "data": [{"smiles": "CC(C)Cc1ccc(C(C)C(=O)O)cc1", "note": "(stereo not drawn) [ibuprofen]", "values": [{"measurement": "time within which almost all the drug was released", "setting": "[1]", "value": "≤ 30", "unit": "min"}, {"measurement": "release behaviour from the Pickering particles in the release medium", "setting": "[1]", "value": "sustained release"}, {"measurement": "time during which most of the drug was released", "setting": "[2]; Ibuprofen from Beeswax-Starch MSs, PBS pH 7.4, 37° C.", "value": 4, "unit": "days"}, {"measurement": "further continuation of release in water compared with buffer", "setting": "[2]; Ibuprofen from Beeswax-Starch MSs, ddH2O, 37° C.", "value": 7, "unit": "days"}, {"measurement": "loading capacity", "setting": "[3]; Ibuprofen in Beeswax-Starch MSs, average of three experiments", "value": 15.7, "unit": "%"}, {"measurement": "entrapment efficiency", "setting": "[3]; Ibuprofen-loaded microspheres from beeswax and starch", "value": 71, "unit": "%"}]}, {"smiles": "CCN(CC)CC(=O)Nc1c(C)cccc1C", "note": "[Lidocaine]", "values": [{"measurement": "drug released in initial burst, first 24 h", "setting": "[2]; Lidocaine from Beeswax-Chitosan microspheres, 10 mM phosphate buffer pH 7.4, 37° C.", "value": "about 70%"}, {"measurement": "entrapment efficacy", "setting": "[3]; Lidocaine in Beeswax-Chitosan particles (pH 6.5)", "value": 49, "unit": "%"}]}, {"smiles": "O=[N+]([O-])c1cc(C(F)(F)F)c(Cl)c([N+](=O)[O-])c1Nc1ncc(C(F)(F)F)cc1Cl", "note": "[Fluazinam]", "values": [{"measurement": "release behaviour in water", "setting": "[4]", "value": "constantly releasing"}]}, {"smiles": "CC(C(=O)O)c1cccc(C(=O)c2ccccc2)c1", "note": "(stereo not drawn) [ketoprofen]", "values": [{"measurement": "time within which almost all the drug was released", "setting": "[1]", "value": "≤ 30", "unit": "min"}]}, {"smiles": "CCN(CC)C(=O)c1cccc(C)c1", "note": "[DEET]", "values": [{"measurement": "decrease in weight (weight loss)", "setting": "[5]", "value": 2, "unit": "%"}]}, {"smiles": "CN(C)CCC[C@@]1(c2ccc(F)cc2)OCc2cc(C#N)ccc21", "note": "[escitalopram]", "values": [{"measurement": "release behaviour from the Pickering particles in the release medium", "setting": "[1]", "value": "sustained release"}]}]}
